Data on 2 molecules can be found in publication PMC5520492, “Inhibition of DNA2 nuclease as a therapeutic strategy targeting replication stress in cancer cells” (Oncogenesis, 2017).

For one experiment, the target named is T1, hDNA2 (Homo sapiens, UniProt P51530).
T1 construct: made in house
T1 sequence (P51530 1-1060): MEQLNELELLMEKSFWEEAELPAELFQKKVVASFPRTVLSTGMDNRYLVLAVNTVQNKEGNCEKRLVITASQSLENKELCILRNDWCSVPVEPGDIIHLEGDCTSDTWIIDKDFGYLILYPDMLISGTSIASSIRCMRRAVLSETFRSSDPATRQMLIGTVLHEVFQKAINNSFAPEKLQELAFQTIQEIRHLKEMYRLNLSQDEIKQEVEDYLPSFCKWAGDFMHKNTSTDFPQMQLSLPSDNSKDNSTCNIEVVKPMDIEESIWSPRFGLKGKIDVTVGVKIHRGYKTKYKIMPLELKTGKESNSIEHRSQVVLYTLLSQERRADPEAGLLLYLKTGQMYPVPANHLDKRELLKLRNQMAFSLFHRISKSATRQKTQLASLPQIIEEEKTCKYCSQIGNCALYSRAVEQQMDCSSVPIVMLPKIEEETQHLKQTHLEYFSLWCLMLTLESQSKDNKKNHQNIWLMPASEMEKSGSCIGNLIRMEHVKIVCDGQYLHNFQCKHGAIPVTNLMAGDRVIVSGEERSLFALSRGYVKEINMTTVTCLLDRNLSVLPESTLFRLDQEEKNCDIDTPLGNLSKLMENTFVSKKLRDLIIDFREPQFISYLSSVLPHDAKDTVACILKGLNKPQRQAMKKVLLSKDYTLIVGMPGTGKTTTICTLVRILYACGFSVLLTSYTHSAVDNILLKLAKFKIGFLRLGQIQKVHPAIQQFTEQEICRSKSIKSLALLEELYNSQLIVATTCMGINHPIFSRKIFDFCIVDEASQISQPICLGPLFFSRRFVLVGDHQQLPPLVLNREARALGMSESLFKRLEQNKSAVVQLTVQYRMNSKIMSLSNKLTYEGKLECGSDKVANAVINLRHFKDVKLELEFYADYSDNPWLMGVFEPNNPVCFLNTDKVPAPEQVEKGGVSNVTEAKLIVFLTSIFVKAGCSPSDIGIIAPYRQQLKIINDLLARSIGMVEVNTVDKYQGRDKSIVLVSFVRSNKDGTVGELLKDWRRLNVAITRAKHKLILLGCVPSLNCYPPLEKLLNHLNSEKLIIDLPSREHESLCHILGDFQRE
The experiment is described as follows: Fluorescence nuclease assay with hDNA2 (triply labeled ssDNA). In kind it is biochemical. The conditions noted are these: human DNA2 10 nM; substrate 0.1 μM; Figure 3c; read-out: IC50 (human DNA2), dose-response in vitro. The procedure:
Figure 3 Validation of the top two inhibitors identified from the high-throughput screen. […] (b, c) Dose-response curves for indicated compounds, cell based (U2OS cell line) (b) and in vitro (c). The IC50 value and the protein concentration used are indicated. Triple labeled substrate (0.1 μM) as in Figure 2a was used. The concentration range of inhibitors was 0.003–666.67 μM. […] The asterisks denote the radiolabel. Plotted are the average data from three independent experiments and the error bars represent 1 s.d. […]
In addition, a second dark quencher ZEN (N,N-diethyl-4-(4-nitronaphthalen-1-ylazo)-phenylamine, absorption max.=532 nm) is placed between 9th and 10th base (Figure 2a). […] The optimal amount of yDna2, hDNA2 and T5 nuclease was determined by utilizing the Kaleidagraph software (Reading, PA, USA) to fit the data according to Michaelis Menton Kinetics (V=V0+Vmax*x/(Km+x)). […] The Z’ value was calculated as previously described.[50] Cell proliferation was determined using 4,6-diamidino-2-phenylindole staining followed by high-throughput microscopy in a 384-well plate setup. In brief, cells were fixed with formaldehyde, washed and stained with 4,6-diamidino-2-phenylindole and the number of nuclei in each well counted by automated microscopy. The data were analyzed as described.[51]

Experiment [1] concerns the target T2, hDNA2, Bloom syndrome and RPA (Homo sapiens, UniProt P51530).
T2 construct: made in house
T2 sequence (P51530 1-1060): T1 sequence (P51530 1-1060)
Nature of the experiment: Reconstituted 5' DNA end resection assay (2-kb dsDNA degradation). The conditions noted are these: hDNA2 5 nM, Bloom syndrome 5 nM, RPA 100 nM. The class given is biochemical. The procedure: Figure 3 Validation of the top two inhibitors identified from the high-throughput screen. […] (b, c) Dose-response curves for indicated compounds, cell based (U2OS cell line) (b) and in vitro (c). The IC50 value and the protein concentration used are indicated. Triple labeled substrate (0.1 μM) as in Figure 2a was used. The concentration range of inhibitors was 0.003–666.67 μM. […] The asterisks denote the radiolabel. Plotted are the average data from three independent experiments and the error bars represent 1 s.d.
Nuclease assays were performed in buffer R (20 mM Na-HEPES pH 7.5, 1 mM ATP, 0.1 mM DTT, 100 μg/ml bovine serum albumin, 0.05% Triton X-100, 2 mM MgCl2, 100 mM KCl) and contained 0.5 nM ends (2-kb substrate) or 5 nM ends (the ssDNA oligonucleotide PSOL6929) of DNA. Reactions containing Bloom syndrome also included an ATP regenerating system consisting of 10 mM creatine phosphate and 50 μg/ml creatine kinase. […] Gels were dried onto DEAE paper on top of Whatman filter paper (GE, Issaquah, WA, USA) and then analyzed in a BioRad Personal Molecular Imager FX phosphorimager. Band intensity was quantified using Image Lab software (Bio-Rad, Hercules, CA, USA). The fraction of DNA substrate digested was determined by measuring the amount of substrate remaining and normalizing to the total substrate in the negative control lane containing no protein.

What is called IC50 is the concentration needed to halve the response being measured. With `NC1=C(Br)C(=O)c2ncccc2C1=O` [NSC-105808, 6-amino-7-bromoquinoline-5,8-dione], the 50% inhibitory concentration (IC50) on hDNA2 was 1490 nM. Further, the “Resection in the reconstituted system” value in experiment [1] was “inhibited”.
Take `O=C1C(=O)c2cc([N+](=O)[O-])ccc2-c2ccccc21` [NSC-5195242, 2-nitrophenanthrene-9,10-dione]: on hDNA2, the IC50 was 3100 nM. Besides, in experiment [1], the “Resection in the reconstituted system” value is reported as “inhibited”.
